Assay in all cases: DTP human tumour cell line panel, 48 h
The subject of experiment [1] is HOP-62 NSCLC.
For experiment [2], the system named is SK-MEL-2 melanoma.
In experiment [3] the test system is OVCAR-3 ovarian.
The subject of experiment [4] is NCI-H522 lung.
The subject of experiment [5] is HCT-116 colon.
The test system of experiment [6] is ACHN renal.
Experiment [7] concerns CAKI-1 renal.
In experiment [8] the test system is MALME-3M melanoma.
Experiment [9] deals with RXF 393 renal.
Experiment [10] concerns A498 renal.

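Each compound was tested at five concentrations against cells in 96-well plates for 48 hours. GI50 marks 50% less growth. TGI denotes the concentration required for complete inhibition of growth.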

In the case of `Nc1cc(O)ccc1N=Nc1ccc(-c2nc3ccccc3[nH]2)cc1`, the GI50 (usually the concentration at which growth is held to half of that of the control) in experiment [1] was greater than 100 µM; in [2], 45.1 µM; in experiment [3], 13.7 µM; in experiment [4], 34.2 µM; in experiment [5], 41.2 µM; in experiment [6] it was 34 µM. Further, the GI50 in experiment [7] was 3.51 µM. Besides, the TGI (in general, the concentration giving total growth inhibition) in experiment [1] is greater than 100 µM; in experiment [2] it was greater than 100 µM; in [3], 49.6 µM; in experiment [4], greater than 100 µM; in [5] it was greater than 100 µM; in [6], greater than 100 µM. For the same compound, in [7], the TGI came out at 82.3 µM.
With `Cc1noc2c1C(=O)CCC2`, the TGI in [2], in experiment [3], in experiment [8], in experiment [4], in experiment [9] and in experiment [5] was greater than 100 µM each time. Further, the TGI in [6] and in [7] was greater than 100 µM in each case.
As to `O=c1cc(-c2c[nH]c3ccccc23)[nH]c2cc3c(cc12)OCO3`, the TGI in [1], in [2], in experiment [3], in experiment [8], in experiment [9] and in experiment [10] was greater than 100 µM throughout. The TGI in experiment [5] and in experiment [6] was greater than 100 µM in each case.
For the compound `CN(C)C(=Nc1nc(=[N+](C)C)ss1)N(C)C`, the TGI in [1], in experiment [2], in experiment [4], in experiment [9], in [10] and in experiment [6] was greater than 100 µM in each case. In addition, the TGI in experiment [7] is greater than 100 µM.
Consider `Cc1cc(-c2ccccc2)nc(Nc2nc3ccccc3o2)n1`, for which the TGI in [1], in experiment [2], in [3], in experiment [8], in experiment [4] and in experiment [10] was greater than 100 µM in each case. Besides, the TGI in [5], in experiment [6] and in experiment [7] was greater than 100 µM throughout.
Take `COC(=O)C1OC2(CCCC3CC32)O[C@H]1C(=O)OC` (some centres undefined): the TGI in experiment [1], in [2], in [3], in [8], in [4] and in [9] was greater than 100 µM each time. Besides, the TGI in experiment [5], in experiment [6] and in [7] was greater than 100 µM throughout.
Consider `O=S(=O)(O)c1ccc(N=Nc2nc(C(F)(F)F)c(C(F)(F)F)[nH]2)cc1`, for which the TGI was greater than 100 µM in experiment [1]; greater than 100 µM in experiment [2]; greater than 100 µM in experiment [3]; greater than 100 µM in experiment [8]; 32.9 µM in experiment [9]; greater than 100 µM in [5]. For the same compound, the TGI is greater than 100 µM in [6] and 89.4 µM in [7].
Consider `Cc1ccc(/C=C2\CN(C(=O)C(Cl)Cl)C/C(=C\c3ccc(C)cc3)C2=O)cc1`, for which the GI50 in experiment [1] is 0.298 µM; in [2], 1.8 µM; in [3], 0.209 µM; in experiment [8], 0.35 µM; in experiment [9], 0.216 µM; in [10], 0.203 µM. Further, the values for the GI50 in experiment [5], in experiment [6] and in experiment [7] were 0.0654 µM, 0.244 µM and 0.273 µM, respectively. In addition, the TGI is 1.28 µM in experiment [1]; 5.5 µM in experiment [2]; 0.483 µM in experiment [3]; 2.04 µM in [8]; 0.507 µM in experiment [9]; 0.79 µM in experiment [10]. The values for the TGI in [5], in [6] and in experiment [7] were 0.194 µM, 0.62 µM and 1.01 µM, respectively.
As to `CCCCCCCCCCCCCCCCNCCCN(C)CCCN`, the TGI in [2] stood at 41.8 µM; in [3] it was 35.9 µM; in experiment [4], 32.3 µM; in experiment [10] it was 34 µM; in [5], 38 µM; in experiment [6] it was 34.9 µM. This compound also gave a total growth inhibition concentration (TGI) in experiment [7] of 35.8 µM.
Take `C#CC[N+](C)(CC#C)CC#C`: the TGI in experiment [1], in experiment [2], in [3], in [8], in [4] and in [9] was greater than 100 µM each time. The TGI in experiment [6] and in [7] was greater than 100 µM in each case.
On to `COc1cccc2c1-c1c(c3ccc([N+](=O)[O-])cc3c(=O)n1CCCN)C2=O`, for which the GI50 is 1.13 µM in experiment [1]; 1.58 µM in experiment [2]; 2.3 µM in [3]; 0.043 µM in [4]; 24.1 µM in experiment [9]; 15.7 µM in experiment [10]. Besides, the values for the GI50 in [5], in [6] and in experiment [7] were 0.49 µM, 0.884 µM and 15.1 µM, respectively. Moreover, the TGI was 2.5 µM in experiment [1]; 3 µM in experiment [2]; 5.71 µM in experiment [3]; 1.89 µM in experiment [4]; greater than 78.8 µM in experiment [9]; 32.8 µM in experiment [10]. In addition, the TGI in [5] is 2.25 µM; in experiment [6], 6.65 µM; in experiment [7], 62.7 µM.
As for `O=C(CCC(=O)Nc1ccc(Cl)c(Cl)c1)CC(=O)c1ccc(F)cc1`, the TGI in experiment [1], in [3], in experiment [8], in experiment [9], in experiment [5] and in [6] was greater than 100 µM throughout. In experiment [7], this compound came in with a TGI greater than 100 µM.
`CCC(c1ccc(OC)cc1)C(CC)c1ccc(O)c(CN2CCN(C)CC2)c1` (centres undefined): the GI50 in [1] was 11 µM; in [2] it was 2.85 µM; in experiment [3], 4.1 µM; in experiment [4] it was 4.74 µM; in experiment [9], 2.83 µM; in experiment [10] it was 4.13 µM. Also, the GI50 in experiment [5] was 3.46 µM; in experiment [6], 9.99 µM; in experiment [7], 2.61 µM. In addition, the TGI is 26.2 µM in experiment [1]; 6.46 µM in experiment [2]; 14.3 µM in [3]; 17 µM in experiment [4]; 12.2 µM in experiment [9]; 16.1 µM in experiment [10]. The concentration for total growth inhibition (TGI) in experiment [5] is 14.5 µM; in [6] it was 22.9 µM; in experiment [7] it was 10.6 µM.

These data come from PubChem BioAssay (NCI).
